This passage reports EC50 results from patent US8293744B2, “Heterocyclic fused cinnoline M1 receptor positive allosteric modulators” (Merck Sharp & Dohme Corp., priority 2009, dated 2012).

SMILES strings stand for the structures.

The target of this experiment is T1, acetylcholine muscarinic M1 receptor (Homo sapiens, UniProt P11229).
T1 construct: expressed in transfected cells; host or cells: CHOnfat (CHO cells; also called CHOK1/hM1)
T1 sequence (P11229 1-460): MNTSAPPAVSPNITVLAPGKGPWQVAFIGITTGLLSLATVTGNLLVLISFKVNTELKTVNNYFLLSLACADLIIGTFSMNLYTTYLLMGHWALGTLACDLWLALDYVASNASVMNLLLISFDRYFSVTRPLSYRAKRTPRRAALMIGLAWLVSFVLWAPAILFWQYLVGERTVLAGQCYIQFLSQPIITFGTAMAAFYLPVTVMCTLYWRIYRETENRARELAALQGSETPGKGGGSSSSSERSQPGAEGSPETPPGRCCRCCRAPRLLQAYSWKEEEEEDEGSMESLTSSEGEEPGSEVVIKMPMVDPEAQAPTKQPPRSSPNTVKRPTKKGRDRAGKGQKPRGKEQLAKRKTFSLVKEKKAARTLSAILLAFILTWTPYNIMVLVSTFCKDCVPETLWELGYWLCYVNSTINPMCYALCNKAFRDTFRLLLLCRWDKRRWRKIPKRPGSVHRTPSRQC
Nature of the experiment: muscarinic FLIPR assay: potentiation of acetylcholine (EC20)-stimulated intracellular Ca2+ in CHOnfat/hM1 cells. It is filed as cell-based. The note with it: 4 min preincubation, then EC20 acetylcholine (3 nM final), read-out: IP Value (inflection point). The procedure:
The assay studies the effect of one or several concentrations of test compounds on basal or acetylcholine-stimulated Ca^2+ levels using FLIPR.
Compounds are prepared and subjected to a preincubation period of 4 min. Thereafter, a single EC20 concentration of acetylcholine is added to each well (3 nM final). The intracellular Ca^2+ level of each sample is measured and compared to an acetylcholine control to determine any modulatory activity
Cells: CHOnfat/hM1, hM2, hM3 or hM4 cells are plated 24 hr before the assay at a density of 18,000 cells/well (100 μL) in a 384 well plate. CHOnfat/hM1 and CHOnfat/hM3 Growth Medium: 90% DMEM (Hi Glucose); 10% HI FBS; 2 mM L-glutamine; 0.1 mM NEAA; Pen-Strep; and 1 mg/ml Geneticin, are added. For M2Gqi5CHOnfat and M4Gqi5CHOnfat cells, an additional 600 ug/ml hygromycin is added.
Equipment: 384 well plate, 120 μL addition plate; 96-well Whatman 2 ml Uniplate Incubator, 37° C., 5% CO2; Skatron EMBLA-384 Plate Washer; Multimek Pipetting System; Genesis Freedom 200 System; Mosquito System; Temo Nanolitre Pipetting System; and FLIPR^384 Fluorometric Imaging Plate Reader System are used.
Buffers. Assay Buffer: Hanks Balanced Salt Solution, with 20 mM Hepes, 2.5 mM Probenecid (Sigma P-8761) first dissolved in 1 N NaOH, 1% Bovine Serum Albumin (Sigma A-9647). Dye Loading Buffer: Assay Buffer plus 1% Fetal Bovine Serum and Fluo-4AM/Pluronic Acid Mixture. 2 mM Fluo-4AM ester stock in DMSO (Molecular Probes F-14202) Concentration of 2 μM in buffer for a final concentration of 1 μM in Assay. 20% Pluronic Acid Solution stock, with concentration of 0.04% in Buffer, 0.02% in Assay.
65 μL of 2 mM Fluo-4AM are mixed with 130 μL of 20% Pluronic Acid. The resulting solution and 650 μL FBS is added to the assay buffer for a total volume of 65 mL. Positive Controls; 4-Br-A23187: 10 mM in DMSO; final concentration 10 μM. Acetylcholine: 10 mM in water, working stock at both 20 μM and 30 μM in assay buffer, final concentration of 10 μM. This is used to check the maximum stimulation of the CHOK1/hM1 cells. 20 μM (2×) acetylcholine is added in the preincubation part of the assay, and the 30 μM (3×) stock is added in the second part. (EC20)Acetylcholine; 10 mM in water, working stock of 9 nM (3×), and final concentration in assay is 3 nM. This is used after the preincubation with test compounds. Addition of the EC20 Acetylcholine to each well with a test compound will ascertain any modulator activity. 24 wells contain 3 nM Acetylcholine alone as a control.
Screening Plate: Compounds are titrated in 96-well plates (columns 2-11), 100% DMSO, started at a concentration of 15 mM (150× stock concentration), and 3-fold serial dilutions using Genesis Freedom 200 System. Four 96-well plates are combined into a 384-well plate using Mosquito Nanolitre Pipetting System by transferring 1 μl of serial diluted compounds to each well, and 1 mM acetylcholine (100× stock concentration) were added as a control. Using Temo, 49 μl assay buffer is added to each well of the 384-well plate right before assay.
In a 96-well Whatman 2 ml Uniplate, 9 nM Acetylcholine (3×) is pipetted into wells corresponding to the screening compounds, and into control wells. The 30 μM acetylcholine control (3×) is added into control wells, and the 3× agonist plate is transferred into a 384 well plate.
Cells are washed three times with 100 μL of buffer, leaving 30 μL of buffer in each well. Using Multimek, 30 μL of Dye Loading Buffer is added into each well and incubated at 37° C., 5% CO2 for up to one hr.
After 60 min, the cells are washed three times with 100 μL of buffer, leaving 30 μL of buffer in each well. The cell plate, screening plate, and agonist addition plates are placed on the platform in the FLIPR and the door closed. A signal test to check background fluorescence and basal fluorescence signal is performed. Laser intensity is adjusted if necessary. […]
As to `Cc1ccc(-c2ccc(Cn3nc4c(=O)n([C@@H]5CCCC[C@H]5O)nc-4c4cccnc43)cn2)cn1` (racemic) [Example 8, (±)-2-(trans-2-Hydroxycyclohexyl)-5-[(6′-methyl-2,3′-bipyridin-5-yl)methyl]-2,5-dihydro-3H-pyrazolo[4,3-c]pyrido[3,2-e]pyridazin-3-one], the EC50 is 140 nM.

Take `Cc1ccc(-c2ccc(Cn3nc4c(=O)n(C5CCCOC5)nc-4c4cccnc43)cn2)cn1` (racemic) [Example 9, (±)-5-[(6′-Methyl-2,3′-bipyridin-5-yl)methyl]-2-(tetrahydro-2H-pyran-3-yl)-2,5-dihydro-3H-pyrazolo[4,3-c]pyrido[3,2-e]pyridazin-3-one]: the EC50 came to 1160 nM.

For the compound `O=c1c2nn(Cc3ccc(-n4cccn4)cc3)c3ncccc3c-2nn1C1CCCOC1` (racemic) [Example 10, (±)-5-{[4-(1H-Pyrazol-1-yl)phenyl]methyl}-2-(tetrahydro-2H-pyran-3-yl)-2,5-dihydro-3H-pyrazolo[4,3-c]pyrido[3,2-e]pyridazin-3-one], the EC50 came to 438 nM.

In the case of `Cc1ccc(-c2ccc(Cn3nc4c(=O)n(C5CCCOC5)nc-4c4cccnc43)cc2)cn1` (racemic) [Example 11, (±)-5-{[4-(6-Methylpyridin-3-yl)phenyl]methyl}-2-(tetrahydro-2H-pyran-3-yl)-2,5-dihydro-3H-pyrazolo[4,3-c]pyrido[3,2-e]pyridazin-3-one], the EC50 was 370 nM.

In the case of `O=c1c2nn(Cc3ccc(-c4cscn4)cc3)c3ncccc3c-2nn1C1CCCOC1` (racemic) [Example 31, (±)-2-(Tetrahydro-2H-pyran-3-yl)-5-{[4-(1,3-thiazol-4-yl)phenyl]methyl}-2,5-dihydro-3H-pyrazolo[4,3-c]pyrido[3,2-e]pyridazin-3-one], the EC50 worked out at 295 nM.

`O=c1c2nn(Cc3ccc(-c4ccc(O)nc4)cc3)c3ncccc3c-2nn1C1CCCOC1` (racemic) [Example 32, (±)-5-{[4-(6-Hydroxypyridin-3-yl)phenyl]methyl}-2-(tetrahydro-2H-pyran-3-yl)-2,5-dihydro-3H-pyrazolo[4,3-c]pyrido[3,2-e]pyridazin-3-one]: the EC50 amounted to 1690 nM.

For `O=c1c2nn(Cc3ccc(-n4cccn4)cc3)c3ccsc3c-2nn1C1CCCOC1` (racemic) [Example 37, (±)-5-{[4-(1H-Pyrazol-1-yl)phenyl]methyl}-2-(tetrahydro-2H-pyran-3-yl)-2,5-dihydro-3H-pyrazolo[4,3-c]thieno[2,3-e]pyridazin-3-one], the EC50 amounted to 96 nM.

Turning to `Cc1ccc(-c2ccc(Cn3nc4c(=O)n(C5CCCOC5)nc-4c4sccc43)cc2)cn1` (racemic) [Example 38, (±)-5-{[4-(6-Methylpyridin-3-yl)phenyl]methyl}-2-(tetrahydro-2H-pyran-3-yl)-2,5-dihydro-3H-pyrazolo[4,3-c]thieno[2,3-e]pyridazin-3-one], the EC50 is 183 nM.

For `Cc1cc(-c2ccc(Cn3nc4c(=O)n(C5CCCOC5)nc-4c4sccc43)cc2)ccn1` (racemic) [Example 39, (±)-5-{[4-(2-Methylpyridin-4-yl)phenyl]methyl}-2-(tetrahydro-2H-pyran-3-yl)-2,5-dihydro-3H-pyrazolo[4,3-c]thieno[2,3-e]pyridazin-3-one], the EC50 is 120 nM.

With `Cc1cccc(-n2nc3c4cccnc4n(Cc4ccc(-c5cnn(C)c5)nc4)nc-3c2=O)c1C` [Example 1, 2-(2,3-Dimethylphenyl)-5-{[6-(1-methyl-1H-pyrazol-4-yl)pyridin-3-yl]methyl}-2,5-dihydro-3H-pyrazolo[4,3-c]pyrido[3,2-e]pyridazin-3-one], the EC50 came out at 58 nM.

`Cc1cccc(-n2nc3c4cccnc4n(Cc4ccc(Cl)nc4)nc-3c2=O)c1C` [Example 4, 5-[(6-Chloropyridin-3-yl)methyl]-2-(2,3-dimethylphenyl)-2,5-dihydro-3H-pyrazolo[4,3-c]pyrido[3,2-e]pyridazin-3-one]: the EC50 worked out at 366 nM.

Regarding `Cc1ccc(-c2ccc(Cn3nc4c(=O)n(-c5cccc(C)c5C)nc-4c4cccnc43)cn2)cn1` [Example 5, 2-(2,3-Dimethylphenyl)-5-[(6′-methyl-2,3′-bipyridin-5-yl)methyl]-2,5-dihydro-3H-pyrazolo[4,3-c]pyrido[3,2-e]pyridazin-3-one], the EC50 was determined as 109 nM.

On to `Cc1ccc(-c2ccc(Cn3nc4c(=O)n(-c5cccc(C)c5F)nc-4c4cccnc43)cn2)cn1` [Example 6, 2-(2-Fluoro-3-methylphenyl)-5-[(6′-methyl-2,3′-bipyridin-5-yl)methyl]-2,5-dihydro-3H-pyrazolo[4,3-c]pyrido[3,2-e]pyridazin-3-one], for which the EC50 came out at 36 nM.

Turning to `Cc1cncc(-c2ccc(Cn3nc4c(=O)n(C5CCCOC5)nc-4c4cccnc43)cc2)c1` (stereo not shown) [Example 13], the EC50 was determined as 578 nM.

Consider `Cc1ccccc1-n1nc2c3sccc3n(Cc3ccc(-n4cccn4)cc3)nc-2c1=O` [Example 33, 2-(2-Methylphenyl)-5-{[4-(1H-pyrazol-1-yl)phenyl]methyl}-2,5-dihydro-3H-pyrazolo[4,3-c]thieno[2,3-e]pyridazin-3-one], for which the EC50 amounted to 48 nM.

`Cc1c(-n2nc3c4sccc4n(Cc4ccc(-n5cccn5)cc4)nc-3c2=O)ccnc1F` [Example 34]: the EC50 is 33 nM.
